Test results from ChEMBL document CHEMBL1201862, “PubChem BioAssay data set” (2004).
Activity calls are given as the source filed them.

Key:
[1] = HEK293 Cytotoxicity Assay Measured in Cell-Based System Using Plate Reader - 7071-01_Inhibitor_Dose_CherryPick_Activity_Set2.; assay type: functional
HeLa = assay: HeLa cell cytotoxicity, dose response, cytotoxicity control, ATP luminescence, cherry-pick samples (AID 687004); assay type: functional, cell-based; settings: Homo sapiens
HEK293 = assay: HEK293T cell cytotoxicity, dose response, cytotoxicity control, ATP luminescence, cherry-pick samples (AID 687005); assay type: functional, cell-based; settings: Homo sapiens;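 note: cells exposed to compound for 48 hours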
[2] = Late stage counterscreen for inhibitors of Trypanosoma brucei methionyl tRNA synthetase (MetRS): Luminescence-based cell-based high throughput dose response assay to identify compounds that are cytotoxic to Jurkat human T lymphocyte cells.; assay type: functional
[3] = IGROV1 ovarian cancer cell cytotoxicity, dose response, PAX8 inhibitor project, plate reader, dry powder samples (AID 743043); assay type: functional, cell-based; settings: IGROV-1
Paired box protein Pax-8 = Paired box protein Pax-8 (Homo sapiens, UniProt Q06710); assay: inhibitors of PAX8-driven TPO luciferase reporter, dose response, RMG-I cells, cherry-pick (AID 687027); assay type: functional, cell-based;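 note: luciferase reporter driven by Pax8 target thyroperoxidase promoter measured by SteadyGlo luminescence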
[4] = cytotoxicity in OVCAR8 ovarian cancer cells, dose response, PAX8 project, cell-based, plate reader, dry powder samples (AID 743197); assay type: functional; settings: OVCAR-8
[5] = NIH:OVCAR-3 ovarian cancer cell cytotoxicity, dose response, PAX8 inhibitor project, plate reader, dry powder samples (AID 743044); assay type: functional, cell-based
[6] = non-specific cell cytotoxicity, dose response, cytotoxicity control for PAX8 inhibitor project, plate reader, dry powder samples (AID 743021); assay type: functional, cell-based

Paired box protein Pax-8, sequence (Q06710 whole entry): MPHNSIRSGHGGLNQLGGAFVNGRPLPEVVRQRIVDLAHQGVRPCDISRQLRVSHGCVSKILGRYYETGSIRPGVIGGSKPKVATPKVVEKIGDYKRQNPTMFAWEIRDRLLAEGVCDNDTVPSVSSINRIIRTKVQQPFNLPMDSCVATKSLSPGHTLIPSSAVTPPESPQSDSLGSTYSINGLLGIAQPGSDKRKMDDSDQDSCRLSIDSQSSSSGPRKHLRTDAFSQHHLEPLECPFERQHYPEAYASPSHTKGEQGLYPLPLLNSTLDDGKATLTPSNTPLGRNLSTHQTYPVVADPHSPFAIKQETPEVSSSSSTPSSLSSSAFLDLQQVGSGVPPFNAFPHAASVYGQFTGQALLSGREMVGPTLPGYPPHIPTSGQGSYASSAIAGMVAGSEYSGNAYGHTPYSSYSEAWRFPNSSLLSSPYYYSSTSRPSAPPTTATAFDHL

SMILES: C[C@@H]1CN([C@H](C)CO)S(=O)(=O)c2ccc(C#Cc3ccc(F)cc3)cc2O[C@H]1CN(C)C(=O)NC1CCCC1
- AC50 [1]: 4.91 µM (active)
- AC50 (HeLa): 34.7 µM (active)
- AC50 (HEK293): 4.91 µM (active)

SMILES: COc1cccc(S(=O)(=O)Nc2ccc3c(c2)[C@@H]2C[C@@H](CC(=O)NCc4cccc(F)c4)O[C@H](CO)[C@@H]2O3)c1
- AC50 [1]: 27.7 µM (active)
- AC50 (HEK293): 27.7 µM (active)

SMILES: O=C(CC=NOCc1ccc([N+](=O)[O-])cc1)Nc1ccc(Cl)cc1
- IC50 [2]: > 83.3 µM (inactive)

SMILES: C[C@@H]1CCCCO[C@H](CN(C)Cc2ccc(C(F)(F)F)cc2)[C@@H](C)CN([C@@H](C)CO)C(=O)c2cc(NC(=O)c3ccccc3)ccc2O1
- AC50 [3]: 26.2 µM (active)
- AC50 (Paired box protein Pax-8): 6.57 µM (active)
- AC50 [4]: 21.5 µM (active)
- AC50 [5]: 10.8 µM (active)
- AC50 [6]: 52.2 µM (active)
